Reference: patent US20250228833A1, “METHODS AND COMPOSITIONS FOR TREATING AGITATION” (BioXcel Therapeutics, Inc., priority 2021, published 2025)
Counter-ions that a name gives are not always drawn.

Columns and labels:
[1] = tested on: spontaneous locomotor activity; experiment: Open field test (Example 7); conditions: 60 min post dose, 30 minutes tracking, vs vehicle
Experimental: Test system: Mice Strain/Gender: Swiss albino/Male Study: Open field test
Open field test: The spontaneous locomotor activity in terms of total distance traveled is measured in open field test. Comparatively lower distance traveled would indicate either less motor activity or sedation.
Mice were brought to the laboratory and allowed to acclimatize to the environment for at least 7 days. The open field test was done in lighting conditions of 40 lux light. The mice were dosed as per the allocation. After a post dose interval of 60 minutes, 4 mice from a group were placed in the open field and the movement was tracked for a period of 30 minutes. Once the trial was over the mice were removed from the open field and the arena was cleaned. Following this, next set of 4 mice were placed in the arena and tracked.
The distance travelled for a period of 30 minutes was analyzed in bins of 5 minutes and was compared with that of the vehicle group using one-way ANOVA followed by Dunnett's test. All statistical analysis were performed using Graph pad prism software package (Version 7 or Higher) and p value below 0.05 was considered as significant.

depressive-like behavior = experiment: Forced swim test in dark phase (Example 4)
Experimental: • Species: Rattus norvegicus • Strain: Sprague Dawley (SD) • Sex and Age: Male, 8-10 weeks old • Source: Hylasco Biotechnology Pvt.
Study was carried out as a staggered treatment, each treatment group divided as cohort 1, cohort 2 and cohort 3.
Swim 2 was carried out between 19:30 to 21:30. Animals were administered test compounds from 18:30 onwards in staggered manner 60 minutes before FST 2.
Forced Swim Test was carried out in Dark Phase
On Day 1, animals were subjected to forced swim test training for 15 minutes (Swim 1) and on Day 2, Swim 2 was carried out post treatment.
On day 2 animals were dosed with respective treatment 60 min prior to performing FST.
Forced swim test (Swim 2) was scored manually with no video recording
Forced swim test (FST), was used to study the depressive-like behavior in rodents. The test was carried out in transparent cylindrical glass containers measuring 46 cm in height and 20 cm in diameter.
The containers were filled with water (23-25° C.) to a depth of 30 cm.
There were 2 swim sessions, 24 h apart. The first session, Swim 1 was the pretest/training stage (15 min) and the second session, Swim 2, was the test stage (8 min).
In swim 2, first 1-minute data was excluded from analysis and rest 7 minutes data was considered. In 7 minutes, data, it was divided 5 minutes and 2 minute.
Rat was placed in the water-filled cylinder for 15 min (Swim 1). […]

[2] = tested on: yohimbine-induced noradrenergic hyperarousal; experiment: Elevated plus maze, latrepirdine at different doses in yohimbine-induced hyperarousal (Example 3); format: in vivo, Wistar rats; conditions: for Percent increase as referred to the Vehicle level, Entries / Percent increase as referred to the Vehicle level, Time: yohimbine 2.5 mg/kg i.p. 30 min, 60 min
Experimental: Drug preparation: All compounds/drugs were prepared in normal saline (0.9% NaCl).
Yohimbine was prepared at a solution of 2.5 mg/mL which when injected i.p. at a dosage volume of 1 mL/kg results in a dose of 2.5 mg/kg. Diazepam was prepared at a solution of 1 mg/mL which when injected i.p. at a dosage volume of 1 mL/kg results in a dose of 1 mg/kg. Latrepirdine dihydrochloride hydrate was prepared at a solution of 7.5, 2.5, 0.75 and 0.25 mg/mL which when injected i.m. at a volume of 100 μL for a rat of 250 g results in doses of 3; 1; 0.3 and 0.1 mg/kg; respectively. Latrepirdine dihydrochloride hydrate was also prepared at […] which when administrated i.p. at a dosage volume of 1 mL/kg results in a dose of 3 mg/kg.
Male Wistar rats (Janvier; Le Genest St Isle-France) were used for the study. They were purchased at a body weight of 150 g and reached a body weight of about 220 g at the time of use. They were group-housed (3-4 rats per cage) and maintained in a room with controlled temperature (21-22° C.) and a reversed light-dark cycle (12 h/12 h; lights on: 17:30-05:30; lights off: 05:30-17:30) with food and water available ad libitum.
Rats were distributed in 9 different experimental groups with 12 rats per group as illustrated in Table 6. Each experimental group was also coded so that the experimenter became unaware of the true experimental group at the time EPM trial.
The rats were randomly assigned to one of the different experimental groups. Each animal was identified by its group name, cage number, series (day) of experiment, and a number (from 1 to 9) written with permanent ink on its tail. They were handled by an experimenter for about 3 min each day during 1 week prior to the day of EPM trial. The apparatus was a PVC maze covered with Plexiglas and subdivided into four equal exploratory arms (40×10 cm), which were all interconnected by a small platform (10×10 cm). The apparatus was placed 65 cm above the floor. Two arms were opened, and two others were closed with wall (high: 10 cm). After compound administration, rat was placed on the platform opposite a closed arm. The number of entries and the time spent in each arm were recorded during a 5 min period. The animal was considered as entered in an arm when it placed its four paws in the arm. The apparatus was cleaned between each animal using alcohol (70%). Urine and feces were removed from the maze. During the trials, animal handling and the visibility of the operator were minimized as much as possible.
Analysis of variance (ANOVA) was performed on the result data. Fisher's PLSD was used for pairwise comparisons and p value≤0.05 were considered significant. For the sake of comparison, the change in the EPM performance of Yohimbine rats was expressed as a percentage of increase/decrease as referred to the level recorded in the vehicle (set as 0% change). Therefore, for each of the EPM parameter, the following formula was used: [performance of a given group-performance of vehicle group]/[performance of vehicle group]×100

[3] = tested on: yohimbine-induced noradrenergic mediated hyperarousal; experiment: Elevated plus maze, yohimbine-induced hyperarousal (Example 2); format: in vivo, Wistar rats; conditions: for exploration time (time spent in the open arms) / number of open arm entries: 60 min prior to EPM, yohimbine 2.5 mg/kg i.p. 30 min prior, 5 min period; for reduction of noradrenergic mediated hyperarousal: 10 mg/kg i.m. pretreatment, yohimbine 2.5 mg/kg i.p.
Excerpt: Background: Yohimbine is an alpha 2-adrenergic receptor antagonist reported to trigger panic attacks in healthy volunteers and to exacerbate symptoms in patients with panic disorder (Charney et al., 1992 Acta Psychiatr Scand., Vol. 86 (4): 273-282). Peripheral administration of Yohimbine causes noradrenergic mediated hyperarousal in rats as assessed by the EPM paradigm.
Rationale: The drug yohimbine is a natural product used to test a specific pathway, noradrenergic-mediated hyper-arousal. It is well established that yohimbine is an alpha2-adrenergic receptor antagonist and activates the locus coeruleus (LC) and increases noradrenergic signaling (the opposite of alpha2-adrenergic agonists like dexmedetomidine and clonidine). Increased LC activity and noradrenergic signaling makes animals anxious and agitated which can be measured by using the elevated plus maze. In the elevated plus maze, rodents were in the closed arms and explored the open arms depending on their anxiety and agitation (rats and mice normally explore their environments extensively when calm).
Animal groups: Male: Wistar rats were used in this study and were randomly divided to different experimental groups (12 animals per group).
The test drugs were procured from Sigma or Tocris. dextromethorphan from Sigma Aldrich, Cat No. D9684; latrepirdine from Sigma Aldrich, Cat No. D6196 or Tocris Cat No. 3201 diazepam and fluvoxamine Sigma Aldrich, Cat No. F2802 or Tocris, Cat No. 1033. All these test drugs were formulated in sufficient quantity in 0.9% saline except for Fluvoxamine, which was formulated in 30% ethanol in 0.9% saline.
Apparatus: Elevated Plus Maze (EPM) was used (FIG. 1). The maze consisted of two closed arms and two open arms forming a cross, with a square center platform. All visible surfaces were made of black acrylic. Each arm of the maze was placed on a support column above the floor. Antistatic black vinyl curtains used for surrounding the EPM to make an enclosure.
Study Design and Dosing: Yohimbine was administered by intraperitoneal injection (i.p.) at a dose of 2.5 mg/kg (30 minutes prior to study) to induce agitation and the effects were assessed 30 minutes after yohimbine injection by measuring the number of open arm entries and exploration time in the EPM. The test drugs fluvoxamine, dextromethorphan and latrepirdine dihydrochloride hydrate were administered through intramuscular route and, diazepam through intraperitoneal route into the hindleg thigh muscle of rats (60 minutes prior to study; 30 minutes prior to yohimbine administration). Diazepam was injected 30 minutes intraperitonially prior to the assay i.e. along with yohimbine administration. The study design is illustrated in FIG. 2 and table 5.
After the test drug administration, the rat was placed on the platform opposite a closed arm. The number of entries and the time spent in each arm were recorded during a 5 min period. The animal was considered as entered in arm when it placed its four paws into the arm.
Statistical Analysis: Analysis of variance (ANOVA) was performed on the result data. Fisher's PLSD was used for pairwise comparisons and p value≤0.05 was considered significant.

aggressive behavior = experiment: Resident intruder task (Example 5); format: in vivo, Swiss albino mice; conditions: 10 mg/kg i.p., 60 min prior to trial; mean value
Experimental: Strain/Gender: Swiss albino/Male
Bilateral ovariectomy surgery was carried out in 3-4 weeks old female Swiss albino mice as per the standard methods (Alagwu and Nneli, 2005). Animals were anesthetized using Avertin (2,2,2-Tribromoethanol) at 250 mg/kg, i.p. and were laid down on the surgery table and fixed with adhesive plaster. A midline incision was made on the dorsal region below the rib and 1 cm lateral to the either side of midline, a small incision was made on fascia to isolate the adipose fat supporting the ovaries. By slowly pulling out the fat tissue, the ovary was identified and excised the following uterine horn ligation with silk sutures. Fascia was covered with sutures and similar procedure was repeated on the other side as well. Superficial skin layers were sutured and gentamicin (80 mg/kg, s.c.) was given as antibiotic and meloxicam (4 mg/kg, s.c.) as analgesic, then povidone iodine was applied on superficial skin layers. Polyethylene glycol (PEG) was applied to prevent drying of eye balls and kept for recovery period of 3 weeks (surgery was carried by a single experimenter). […]
Data obtained was compared with basal scoring by using Student's paired two tailed t-test. Duration of attack, and latency of attack between the groups was analyzed using One-Way ANOVA followed by Bonferroni's posthoc test. […]

Question: `Cc1cccc([C@H](C)c2cnc[nH]2)c1C` [Dexmedetomidine hydrochloride, (+) 4-(S)-[1-(2,3-dimethylphenyl)ethyl]-1H-imidazole] was tested. Which distance traveled ([1]; 4 μg/kg i.p.) did it give?
Answer: did not show any significant reduction

Question: What about the distance traveled ([1]; 10 μg/kg i.p.) of the same compound?
Answer: did not show any significant reduction

Question: What about the distance traveled ([1]; 20 μg/kg i.p.) of the same compound?
Answer: did not show any significant reduction

Question: What about the distance traveled ([1]; 30 μg/kg i.p.) of the same compound?
Answer: significant reduction

Question: What about the “increase in swimming time as compared to vehicle saline” value (depressive-like behavior; 1 μg/kg i.m.) of the same compound?
Answer: ~1.6%

Question: For `Cc1ccc2c(c1)c1c(n2CCc2ccc(C)nc2)CCN(C)C1` [Latrepirdine dihydrochloride hydrate, 2,8-dimethyl-5-[2-(6-methylpyridin-3-yl)ethyl]-3,4-dihydro-1H-pyrido[4,3-b]indole], which distance traveled ([1]; 1 mg/kg i.p.) is on record?
Answer: did not show any significant reduction

Question: And the distance traveled ([1]; 3 mg/kg i.p.)?
Answer: did not show any significant reduction

Question: And the distance traveled ([1]; 10 mg/kg i.p.)?
Answer: did not show any significant reduction

Question: And the “Percent increase as referred to the Vehicle level, Entries” value ([2]; 1 mg/kg i.m.)?
Answer: significant

Question: What about the “Percent increase as referred to the Vehicle level, Time” value ([2]; 1 mg/kg i.m.) of the same compound?
Answer: significant

Question: And the “Percent increase as referred to the Vehicle level, Entries” value ([2]; 3 mg/kg i.m.)?
Answer: significant

Question: And the “Percent increase as referred to the Vehicle level, Time” value ([2]; 3 mg/kg i.m.)?
Answer: significant

Question: And the “number of visits to and time spent into the open arms, dose dependence” value ([2]; yohimbine administered rats, 0.1, 0.3, 1 and 3 mg/kg i.m.)?
Answer: dose-dependent increase

Question: And the “EPM performance, i.m. compared with i.p. route” value ([2]; yohimbine rats, 3 mg/kg i.m. vs 3 mg/kg i.p.)?
Answer: comparable

Question: And the “EPM performance of saline-treated rats” value ([2]; yohimbine-free rats, 3 mg/kg i.m.)?
Answer: did not significantly modify

Question: And the “increase in swimming time as compared to vehicle saline” value (depressive-like behavior; 1 mg/kg i.m.)?
Answer: 9.8%

Question: What about the “exploration time (time spent in the open arms)” value (“exploration time” for short) ([3]; 3 mg/kg i.m.) of the same compound?
Answer: increased

Question: And the “number of open arm entries” value ([3]; 3 mg/kg i.m.)?
Answer: significantly increased

Question: And the “exploration time” value ([3]; 10 mg/kg i.m.)?
Answer: increased

Question: What about the “number of open arm entries” value ([3]; 10 mg/kg i.m.) of the same compound?
Answer: significantly increased

Question: What about the duration of attack (aggressive behavior) of the same compound?
Answer: 36.87 s

Question: Which results are given for `COc1ccc2c(c1)[C@]13CCCC[C@@H]1[C@H](C2)N(C)CC3` [dextromethorphan, Dextromethorphan]?
Answer: reduction of noradrenergic mediated hyperarousal [3]: ineffective; exploration time (time spent in the open arms) ([3]; 10 mg/kg i.m.): no effect; number of open arm entries ([3]; 10 mg/kg i.m.): no effect

Question: With `COCCCC/C(=N\OCCN)c1ccc(C(F)(F)F)cc1` [fluvoxamine, Fluvoxamine] as the compound, how does the “reduction of noradrenergic mediated hyperarousal” value [3] read?
Answer: ineffective

Question: What about the “exploration time” value ([3]; 10 mg/kg i.m.) of the same compound?
Answer: no effect

Question: What about the “number of open arm entries” value ([3]; 10 mg/kg i.m.) of the same compound?
Answer: no effect

Question: Which “number of visits to and time spent into the open arms” value ([2]; 2.5 mg/kg i.p., vehicle-treated, compared to vehicle-treated saline rats) does the source give for `COC(=O)[C@@H]1[C@H]2C[C@H]3c4[nH]c5ccccc5c4CCN3C[C@@H]2CC[C@@H]1O` [yohimbine, Yohimbine] here?
Answer: marked significant decrease
